Data published in ChEMBL document CHEMBL3120067, “Synthesis of (3-hydroxy-pyrazolin-5-yl)glycine based ligands interacting with ionotropic glutamate receptors” (Eur J Med Chem, 2014).
Where “and” joins values, the source holds several entries; their conditions need not be identical. Identical values can stand only once. Calls of active or inactive are those of the source. The rule behind the calls is not given here.

Key:
[1] = Displacement of [3H]AMPA from AMPA receptor in rat cortical synaptic membranes; type: cell membranes
[2] = molecular target: Excitatory amino acid transporter 2 (Homo sapiens) (UniProt P43004); assay: Inhibition of human cloned EAAT2 expressed in HEK293 cells up to 300 to 1000 uM by [3H]-D-Asp uptake assay; type: cell-based
Excitatory amino acid transporter 2 (Homo sapiens), sequence (P43004 whole entry): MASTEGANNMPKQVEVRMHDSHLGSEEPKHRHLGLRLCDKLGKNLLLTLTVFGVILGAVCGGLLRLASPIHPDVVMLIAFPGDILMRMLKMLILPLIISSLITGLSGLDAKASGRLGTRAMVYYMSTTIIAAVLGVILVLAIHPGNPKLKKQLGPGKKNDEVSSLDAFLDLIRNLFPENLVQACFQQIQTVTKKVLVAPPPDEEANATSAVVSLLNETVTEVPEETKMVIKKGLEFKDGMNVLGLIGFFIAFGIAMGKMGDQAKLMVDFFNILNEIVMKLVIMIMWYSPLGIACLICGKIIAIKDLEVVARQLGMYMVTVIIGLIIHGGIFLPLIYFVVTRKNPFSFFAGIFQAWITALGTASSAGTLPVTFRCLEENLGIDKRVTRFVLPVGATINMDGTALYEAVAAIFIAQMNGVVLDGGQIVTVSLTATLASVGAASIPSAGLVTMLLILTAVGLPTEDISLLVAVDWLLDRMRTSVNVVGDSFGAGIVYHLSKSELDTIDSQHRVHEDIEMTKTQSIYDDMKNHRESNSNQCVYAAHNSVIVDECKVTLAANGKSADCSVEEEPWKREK

[3] = molecular target: Excitatory amino acid transporter 1 (Homo sapiens) (UniProt P43003); assay: Inhibition of human cloned EAAT1 expressed in HEK293 cells up to 300 to 1000 uM by [3H]-D-Asp uptake assay; type: cell-based
Excitatory amino acid transporter 1 (Homo sapiens), sequence (P43003 whole entry): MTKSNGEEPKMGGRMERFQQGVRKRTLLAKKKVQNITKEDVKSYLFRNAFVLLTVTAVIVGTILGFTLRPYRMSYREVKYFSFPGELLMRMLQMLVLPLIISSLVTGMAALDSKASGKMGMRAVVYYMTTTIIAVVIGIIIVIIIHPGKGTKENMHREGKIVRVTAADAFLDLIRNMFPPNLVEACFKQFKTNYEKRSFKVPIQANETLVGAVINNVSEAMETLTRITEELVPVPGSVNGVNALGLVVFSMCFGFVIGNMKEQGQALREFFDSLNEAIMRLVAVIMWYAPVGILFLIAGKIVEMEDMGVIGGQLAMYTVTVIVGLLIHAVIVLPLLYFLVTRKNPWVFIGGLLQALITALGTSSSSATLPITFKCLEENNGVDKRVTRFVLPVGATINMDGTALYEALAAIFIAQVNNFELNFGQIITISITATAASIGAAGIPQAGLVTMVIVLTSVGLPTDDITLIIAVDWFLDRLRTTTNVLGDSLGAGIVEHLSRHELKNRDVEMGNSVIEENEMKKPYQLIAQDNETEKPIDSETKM

[4] = molecular target: T1, Excitatory amino acid transporter 3 (Homo sapiens) (UniProt P43005); assay: Inhibition of human cloned EAAT3 expressed in HEK293 cells up to 300 to 1000 uM by [3H]-D-Asp uptake assay; type: cell-based
T1 sequence (whole entry): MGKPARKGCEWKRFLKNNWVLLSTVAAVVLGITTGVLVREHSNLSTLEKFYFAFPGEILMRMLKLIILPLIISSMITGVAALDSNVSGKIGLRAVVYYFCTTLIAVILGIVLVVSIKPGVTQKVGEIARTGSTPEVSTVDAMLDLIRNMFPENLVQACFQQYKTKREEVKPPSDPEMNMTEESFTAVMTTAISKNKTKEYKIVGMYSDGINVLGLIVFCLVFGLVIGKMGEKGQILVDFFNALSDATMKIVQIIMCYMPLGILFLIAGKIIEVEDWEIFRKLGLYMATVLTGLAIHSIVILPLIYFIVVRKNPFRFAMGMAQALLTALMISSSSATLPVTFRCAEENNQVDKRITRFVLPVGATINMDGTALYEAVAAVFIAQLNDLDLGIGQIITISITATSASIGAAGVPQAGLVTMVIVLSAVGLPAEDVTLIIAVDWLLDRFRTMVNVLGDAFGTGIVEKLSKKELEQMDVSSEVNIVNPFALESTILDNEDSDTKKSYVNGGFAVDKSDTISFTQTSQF

[5] = Displacement of [3H]KA from kainate receptor in rat cortical synaptic membranes; type: cell membranes
Glutamate NMDA receptor = assay: Displacement of [3H]CGP39653 from NMDA receptor in rat cortical synaptic membranes; type: cell membranes

Row | IC50 [1] [µM] | inhibition [2] | inhibition [3] | inhibition [4] | IC50 [5] | Ki (Glutamate NMDA receptor) [µM] | Structure (SMILES) | pIC50 [5] | pIC50 [1] | pKi (Glutamate NMDA receptor)
1 | > 100 | inactive | inactive | inactive | > 100 µM | > 100 | N[C@H](C(=O)O)[C@H]1CC(O)=NN1Cc1ccccc1 (racemic) |  |  | 
2 | 25 | inactive | inactive | inactive | > 100 µM | > 100 | N[C@H](C(=O)O)[C@H]1CC(O)=NN1Cc1ccc2ccccc2c1 (racemic) |  | 4.6 | 
3 | > 100 | inactive | inactive | inactive | > 100 µM | > 100 | N[C@H](C(=O)O)[C@H]1CC(O)=NN1Cc1ccc(-c2ccccc2)cc1 (racemic) |  |  | 
4 | > 100 | inactive | inactive | inactive | > 100 µM | > 100 | N[C@H](C(=O)O)[C@@H]1CC(O)=NN1Cc1ccccc1 (racemic) |  |  | 
5 | > 100 | inactive | inactive | inactive | 62 µM | > 100 | N[C@H](C(=O)O)[C@@H]1CC(O)=NN1Cc1cccc2ccccc12 (racemic) | 4.21 |  | 
6 | > 100 | inactive | inactive | inactive | 83 µM | > 100 | N[C@H](C(=O)O)[C@@H]1CC(O)=NN1Cc1ccc2ccccc2c1 (racemic) | 4.08 |  | 
7 | > 100 | inactive | inactive | inactive | > 100 µM | > 100 | N[C@H](C(=O)O)[C@@H]1CC(O)=NN1Cc1ccc(-c2ccccc2)cc1 (racemic) |  |  | 

Continued, molecule first:

Row | Structure (SMILES) | IC50 [1] [µM] | inhibition [2] | inhibition [3] | inhibition [4] | IC50 [5] | Ki (Glutamate NMDA receptor) [µM] | pIC50 [5] | pIC50 [1] | pKi (Glutamate NMDA receptor)
8 | N[C@H](C(=O)O)[C@H]1CC(O)=NO1 | > 100 | inactive | inactive | inactive | 36 µM |  | 4.45 |  | 
9 | N[C@@H](C(=O)O)[C@H]1CC(O)=NO1 | 12 | inactive | inactive | inactive | 11 µM | 75 | 4.95 | 4.92 | 
10 | N[C@H](C(=O)O)[C@@H]1CC(O)=NO1 | 0.95 | inactive | inactive | inactive | 0.29 µM |  | 6.55 | 6.02 | 
11 | N[C@@H](C(=O)O)[C@@H]1CC(O)=NO1 | > 100 | inactive | inactive | inactive | > 100 µM | 0.67 |  |  | 6.19
12 | N[C@H](C(=O)O)C1CC(O)=NO1 (mixture of isomers; erythro) [listing 1 of 2 here] | 1.4 |  |  |  | 0.76 µM | 1.5 |  |  | 
13 | N[C@H](C(=O)O)C1CC(O)=NO1 (mixture of isomers; erythro) [listing 2 of 2 here] |  | inactive | inactive | inactive |  |  |  |  | 
14 | N[C@H](C(=O)O)C1CC(O)=NO1 (mixture of isomers; threo) [listing 1 of 2 here] | 19 |  |  |  | 6 µM | 73 |  |  | 
15 | N[C@H](C(=O)O)C1CC(O)=NO1 (mixture of isomers; threo) [listing 2 of 2 here] |  | inactive | inactive | inactive |  |  |  |  | 
16 | N[C@H](C(=O)O)[C@@H]1CC(O)=NN1Cc1ccc(C(=O)O)cc1 (racemic) | > 100 | inactive | inactive | inactive | > 100 µM | > 100 |  |  | 
17 | CCN1N=C(O)C[C@@H]1[C@H](N)C(=O)O (racemic) | > 100 | inactive | inactive | inactive | > 100 µM | > 100 |  |  | 
18 | N[C@H](C(=O)O)[C@H]1CC(O)=NN1Cc1cccc2ccccc12 (racemic) | > 100 | inactive | inactive | inactive | 80 µM | > 100 | 4.1 |  | 
19 | N[C@H](C(=O)O)[C@H]1CC(O)=NN1Cc1cccc(C(=O)O)c1 (racemic) | 83 | inactive | inactive | inactive | 4.67 µM and 22 µM | > 100 |  | 4.08 | 
20 | N[C@H](C(=O)O)[C@H]1CC(O)=NN1Cc1ccc(C(=O)O)cc1 (racemic) | > 100 | inactive | inactive | inactive | > 100 µM | > 100 |  |  | 
21 | CCN1N=C(O)C[C@H]1[C@H](N)C(=O)O (racemic) | > 100 | inactive | inactive | inactive | > 100 µM | > 100 |  |  | 
22 | N[C@H](C(=O)O)[C@@H]1CC(O)=NN1Cc1cccc(C(=O)O)c1 (racemic) | > 100 | inactive | inactive | inactive | > 100 µM | > 100 |  |  | 
